According to PMC10104807, “Modulation of tau tubulin kinases (TTBK1 and TTBK2) impacts ciliogenesis” (Scientific Reports, 2023):

Columns and labels:
Assay in all cases: Eurofins enzymatic radiometric kinase assay
Type in all cases: biochemical
Conditions in all cases: ATP at Km, duplicate
PAK3 = molecular target: T1, PAK3 (Homo sapiens, UniProt O75914)
T1 construct: purchased Eurofins (radiometric) / Eurofins DiscoverX scanMAX / Reaction Biology / SignalChem
Procedure: (§1) The column labeled “# < 10 PoC in enzyme panel” in Table 1 reports the number of kinases in this 17-member panel inhibited > 90% by each analog.
(§2) Details about the substrate used, protein constructs, controls, and assay protocol for these kinase assays are available at the Eurofins website: https://www.eurofinsdiscoveryservices.com. Reaction Biology Corp. (RBC) radiometric HotSpot kinase assays were carried out at the Km value for ATP in dose–response (10-pt curve) format for MYLK4, RIPK5, and YSK4 in Table S2. Details about the substrate used, protein constructs, controls, and assay protocol for these kinase assays are available at the RBC website: https://www.reactionbiology.com/list-kinase-targets-us-facility. SignalChem developed an ADP-Glo assay to test for enzymatic inhibition of PIKfyve in dose–response (10-pt curve) format in duplicate.

TSSK1 = molecular target: T2, TSSK1 (Homo sapiens, UniProt Q9BXA7)
T2 construct: purchased Eurofins (radiometric) / Eurofins DiscoverX scanMAX / Reaction Biology / SignalChem
T2 sequence (Q9BXA7 1-367): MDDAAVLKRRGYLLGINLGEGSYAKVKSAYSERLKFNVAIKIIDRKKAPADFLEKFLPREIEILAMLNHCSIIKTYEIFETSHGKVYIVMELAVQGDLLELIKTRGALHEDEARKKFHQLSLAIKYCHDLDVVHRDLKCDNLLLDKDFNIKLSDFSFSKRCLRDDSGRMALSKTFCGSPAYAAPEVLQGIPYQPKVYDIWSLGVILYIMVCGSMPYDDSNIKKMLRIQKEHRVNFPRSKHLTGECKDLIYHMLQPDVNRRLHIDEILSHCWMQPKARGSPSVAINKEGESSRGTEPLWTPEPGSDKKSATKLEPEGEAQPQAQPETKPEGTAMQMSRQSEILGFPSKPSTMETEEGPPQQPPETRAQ
Procedure: as §1, §2

TAOK2 = molecular target: T3, TAOK2 (Homo sapiens, UniProt Q9UL54)
T3 construct: purchased Eurofins
T3 sequence (Q9UL54 1-1235): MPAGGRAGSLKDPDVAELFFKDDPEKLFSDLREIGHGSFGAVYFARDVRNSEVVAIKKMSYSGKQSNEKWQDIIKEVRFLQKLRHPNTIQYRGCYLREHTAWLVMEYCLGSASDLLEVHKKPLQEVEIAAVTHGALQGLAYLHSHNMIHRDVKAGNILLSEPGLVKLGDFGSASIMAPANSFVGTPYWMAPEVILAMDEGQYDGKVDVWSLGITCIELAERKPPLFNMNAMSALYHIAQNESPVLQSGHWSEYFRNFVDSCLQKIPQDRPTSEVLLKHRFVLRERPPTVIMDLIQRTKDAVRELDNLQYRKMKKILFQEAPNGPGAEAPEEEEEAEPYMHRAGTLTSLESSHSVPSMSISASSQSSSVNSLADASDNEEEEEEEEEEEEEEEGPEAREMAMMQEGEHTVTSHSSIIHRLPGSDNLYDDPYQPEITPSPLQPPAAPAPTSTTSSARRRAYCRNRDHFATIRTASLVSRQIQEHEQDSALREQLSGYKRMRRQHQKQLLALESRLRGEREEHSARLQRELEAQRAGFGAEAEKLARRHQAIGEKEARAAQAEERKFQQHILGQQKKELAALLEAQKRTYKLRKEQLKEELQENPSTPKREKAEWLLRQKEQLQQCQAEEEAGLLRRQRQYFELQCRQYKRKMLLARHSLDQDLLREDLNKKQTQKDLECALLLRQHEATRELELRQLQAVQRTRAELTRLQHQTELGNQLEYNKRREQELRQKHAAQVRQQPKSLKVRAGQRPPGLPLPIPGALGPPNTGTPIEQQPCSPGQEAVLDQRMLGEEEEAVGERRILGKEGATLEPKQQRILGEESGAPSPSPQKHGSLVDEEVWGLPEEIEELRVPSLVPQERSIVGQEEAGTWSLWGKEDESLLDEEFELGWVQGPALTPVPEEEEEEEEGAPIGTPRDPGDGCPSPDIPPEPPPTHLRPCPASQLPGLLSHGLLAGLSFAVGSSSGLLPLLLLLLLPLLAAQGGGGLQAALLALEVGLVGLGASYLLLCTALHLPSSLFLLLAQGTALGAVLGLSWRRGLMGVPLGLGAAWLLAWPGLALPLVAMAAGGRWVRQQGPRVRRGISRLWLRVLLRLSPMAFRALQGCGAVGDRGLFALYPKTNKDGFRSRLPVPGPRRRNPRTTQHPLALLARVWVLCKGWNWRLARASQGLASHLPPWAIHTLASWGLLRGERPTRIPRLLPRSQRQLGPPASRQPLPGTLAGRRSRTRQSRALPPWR
Procedure: as §1, §2

TSSK2 = molecular target: T4, TSSK2 (Homo sapiens, UniProt Q96PF2)
T4 construct: purchased Eurofins (radiometric) / Eurofins DiscoverX scanMAX / Reaction Biology / SignalChem
T4 sequence (Q96PF2 1-358): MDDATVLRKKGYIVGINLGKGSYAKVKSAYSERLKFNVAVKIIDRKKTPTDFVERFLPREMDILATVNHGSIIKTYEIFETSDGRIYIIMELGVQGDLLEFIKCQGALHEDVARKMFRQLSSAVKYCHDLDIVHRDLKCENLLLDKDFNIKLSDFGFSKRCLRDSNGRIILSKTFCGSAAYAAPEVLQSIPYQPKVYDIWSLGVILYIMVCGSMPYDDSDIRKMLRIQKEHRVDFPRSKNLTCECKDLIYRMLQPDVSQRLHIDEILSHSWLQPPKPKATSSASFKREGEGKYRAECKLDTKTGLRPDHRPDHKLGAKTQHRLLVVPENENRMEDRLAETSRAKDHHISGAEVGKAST
Procedure: as §1, §2

T1 sequence (O75914 whole entry): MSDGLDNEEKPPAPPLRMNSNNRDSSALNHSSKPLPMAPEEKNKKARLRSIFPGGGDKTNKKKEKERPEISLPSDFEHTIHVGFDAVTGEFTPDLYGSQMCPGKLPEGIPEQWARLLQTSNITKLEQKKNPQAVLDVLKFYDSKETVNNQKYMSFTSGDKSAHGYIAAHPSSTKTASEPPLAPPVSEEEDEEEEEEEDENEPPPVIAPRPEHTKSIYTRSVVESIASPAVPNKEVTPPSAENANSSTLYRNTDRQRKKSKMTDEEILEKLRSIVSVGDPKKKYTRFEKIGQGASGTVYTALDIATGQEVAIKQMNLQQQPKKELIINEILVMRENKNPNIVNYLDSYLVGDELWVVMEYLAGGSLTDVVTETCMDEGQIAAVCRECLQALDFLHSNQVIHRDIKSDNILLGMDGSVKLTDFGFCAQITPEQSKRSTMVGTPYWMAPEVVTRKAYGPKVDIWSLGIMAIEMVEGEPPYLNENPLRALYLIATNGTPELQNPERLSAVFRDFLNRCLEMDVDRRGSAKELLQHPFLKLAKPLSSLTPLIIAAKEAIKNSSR

Compound	PAK3 PoC at 1 μM (PAK3) [PoC]	TSSK1 PoC at 1 μM (TSSK1) [PoC]	TAOK2 PoC at 1 μM (TAOK2) [PoC]	TSSK2 PoC at 1 μM (TSSK2) [PoC]
COC(C)(C)C#Cc1ccc2[nH]c3c(c2c1)-c1nc(N)ncc1CCC3 [Compound 11]	100	89	44	86
CC(C)(O)C#Cc1ccc2[nH]cc(-c3ccnc(N)n3)c2c1 [Compound 3]	104	30	12	78
CC(C)(O)C#Cc1ccc2[nH]c3c(c2c1)-c1nc(N)ncc1CC3 [Compound 1]	86	48	28	88
CC(C)(O)C#Cc1ccc2[nH]c3c(c2c1)-c1nc(N)ncc1CCC3 [AMG28, reference compound]	86	10	26	57
CC(C)(O)C#Cc1ccc2[nH]c3c(c2c1)-c1nc(N)ncc1CCCC3 [Compound 2]	100	82	83	76
